From patent US6780398B1, “Aqueous nasal formulation” (Glaxo Smithkline Kabushiki Kaisha, priority 1999, dated 2004)

Test system: Ps. cepacia
Test: Challenge test of BANS against Ps. cepacia (preservative effectiveness)
Type: cell-based, Pseudomonas cepacia (now known as Burkhoderia cepacia)
Details: phenylethylalcohol together with benzalkonium chloride in the formulation; FIG. 7
Source text: 4) Challenge Test of BANS Against Ps. Cepacia
Formulations corresponding to BANS and the same formulation containing only 0.02% (w/w) benzalkonium chloride as preservative (i.e. no phenylethyl alcohol) and the same formulation containing only 0.275% (v/w) phenylethylalcohol as preservative (i.e. no benzalkonium chloride) were challenged with an innoculum of Ps cepacia.

## OCCc1ccccc1 [phenylethylalcohol, Phenylethyl alcohol]
  preservative properties by killing Pseudomonas cepacia: synergistic effect with benzalkonium chloride
